According to publication PMC5218480 (PLoS ONE, 2017):

System: MV-4-11 cells
Test: Gene expression microarray analysis (Affymetrix PrimeView) and GSEA
Type: cell-based, human
Set-up: RFU PODN (11730768_x_at) / Fold change /veh PODN (11730768_x_at) / RFU LINC00158 (11744669_a_at) / Fold change /veh LINC00158 (11744669_a_at) / RFU DUSP10 (11751237_a_at) / Fold change /veh DUSP10 (11751237_a_at) / RFU ID3 (11757404_x_at) / Fold change /veh ID3 (11757404_x_at) / RFU PLEKHG5 (11737974_s_at) / Fold change /veh PLEKHG5 (11737974_s_at) / RFU LRRC4B (11730491_at) / Fold change /veh LRRC4B (11730491_at) / RFU GIMAP4 (11747438_a_at) / Fold change /veh GIMAP4 (11747438_a_at) / RFU KRT8 (11758183_x_at) / Fold change /veh KRT8 (11758183_x_at) / RFU CNN1 (11734310_a_at) / Fold change /veh CNN1 (11734310_a_at) / RFU VPS37D (11726825_at) / Fold change /veh VPS37D (11726825_at) / RFU C10orf10 (11716522_x_at) / Fold change /veh C10orf10 (11716522_x_at) / RFU KIR2DL2 /// KIR2DL4 /// KIR2DL5A /// KIR2DL5B /// KIR2DS1 /// KIR2DS2 /// KIR2DS3 /// KIR2DS4 /// KIR3DL3 /// KIR3DL3 /// KIR3DS1 (11738374_at) / Fold change /veh KIR2DL2 /// KIR2DL4 /// KIR2DL5A /// KIR2DL5B /// KIR2DS1 /// KIR2DS2 /// KIR2DS3 /// KIR2DS4 /// KIR3DL3 /// KIR3DL3 /// KIR3DS1 (11738374_at) / RFU C1QL1 (11718748_at) / Fold change /veh C1QL1 (11718748_at) / RFU TMPRSS4 (11747572_a_at) / Fold change /veh TMPRSS4 (11747572_a_at) / RFU HAMP (11756126_x_at) / Fold change /veh HAMP (11756126_x_at) / RFU RNFT2 (11725882_a_at) / Fold change /veh RNFT2 (11725882_a_at) / RFU NR4A2 (11747474_a_at) / Fold change /veh NR4A2 (11747474_a_at) / RFU ABCC12 (11746883_a_at) / Fold change /veh ABCC12 (11746883_a_at) / RFU TMEM136 (11760407_x_at) / Fold change /veh TMEM136 (11760407_x_at) / RFU CLDN22 /// WWC2 (11732394_at) / Fold change /veh CLDN22 /// WWC2 (11732394_at) / RFU HLA-DPB1 (11760878_x_at) / Fold change /veh HLA-DPB1 (11760878_x_at) / RFU SPINT1 (11716480_a_at) / Fold change /veh SPINT1 (11716480_a_at) / RFU GAP43 (11754022_s_at) / Fold change /veh GAP43 (11754022_s_at) / RFU A4GNT (11735810_at) / Fold change /veh A4GNT (11735810_at) / RFU PRB3 (11715151_x_at) / Fold change /veh PRB3 (11715151_x_at) / RFU TUBB4B (11761932_at) / Fold change /veh TUBB4B (11761932_at) / RFU CAPN14 (11732068_a_at) / Fold change /veh CAPN14 (11732068_a_at) / RFU TMCC2 (11721928_a_at) / Fold change /veh TMCC2 (11721928_a_at) / RFU IRGQ (11745062_a_at) / Fold change /veh IRGQ (11745062_a_at) / RFU FAM174B (11720279_a_at) / Fold change /veh FAM174B (11720279_a_at) / RFU TMPRSS4 (11748680_a_at) / Fold change /veh TMPRSS4 (11748680_a_at) / RFU FAM212B (11763350_a_at) / Fold change /veh FAM212B (11763350_a_at) / RFU PLEKHG5 (11743358_a_at) / Fold change /veh PLEKHG5 (11743358_a_at) / RFU ZSCAN30 (11745921_a_at) / Fold change /veh ZSCAN30 (11745921_a_at) / RFU CMKLR1 (11741424_a_at) / Fold change /veh CMKLR1 (11741424_a_at) / RFU LOC101060620 /// MAPK8IP1 (11723275_at) / Fold change /veh LOC101060620 /// MAPK8IP1 (11723275_at) / RFU SPTSSB (11747773_x_at) / Fold change /veh SPTSSB (11747773_x_at) / RFU PRSS12 (11739890_at) / Fold change /veh PRSS12 (11739890_at) / RFU BIN1 (11741810_x_at) / Fold change /veh BIN1 (11741810_x_at) / RFU WNT11 (11732464_a_at) / Fold change /veh WNT11 (11732464_a_at) / RFU C10orf10 (11716521_a_at) / Fold change /veh C10orf10 (11716521_a_at) / RFU C5orf56 (11738089_at) / Fold change /veh C5orf56 (11738089_at) / RFU CYB561 (11721691_x_at) / Fold change /veh CYB561 (11721691_x_at) / RFU ANKRD19P (11752326_a_at) / Fold change /veh ANKRD19P (11752326_a_at) / RFU OR2T12 /// OR2T33 /// OR2T8 (11738714_s_at) / Fold change /veh OR2T12 /// OR2T33 /// OR2T8 (11738714_s_at) / RFU VCAN (11748164_a_at) / Fold change /veh VCAN (11748164_a_at) / RFU JSRP1 (11732532_at) / Fold change /veh JSRP1 (11732532_at) / RFU KRTAP10-11 (11738290_x_at) / Fold change /veh KRTAP10-11 (11738290_x_at) / RFU MYO3A (11730013_a_at) / Fold change /veh MYO3A (11730013_a_at) / RFU EBF3 (11725865_a_at) / Fold change /veh EBF3 (11725865_a_at) / RFU CAMK2N1 (11719241_x_at) / Fold change /veh CAMK2N1 (11719241_x_at) / RFU C5orf56 (11738088_a_at) / Fold change /veh C5orf56 (11738088_a_at) / RFU OLFML3 (11715873_a_at) / Fold change /veh OLFML3 (11715873_a_at) / RFU LOC100653217 /// NTM (11731650_a_at) / Fold change /veh LOC100653217 /// NTM (11731650_a_at) / RFU MAPK11 (11762145_a_at) / Fold change /veh MAPK11 (11762145_a_at) / RFU FIZ1 (11724087_x_at) / Fold change /veh FIZ1 (11724087_x_at) / RFU OASL (11726364_x_at) / Fold change /veh OASL (11726364_x_at) / RFU SOX15 (11748057_x_at) / Fold change /veh SOX15 (11748057_x_at) / RFU CD79A (11719716_a_at) / Fold change /veh CD79A (11719716_a_at) / RFU HIST1H1D (11736915_at) / Fold change /veh HIST1H1D (11736915_at) / RFU CASKIN2 (11723855_a_at) / Fold change /veh CASKIN2 (11723855_a_at) / RFU LOC730098 (11760151_x_at) / Fold change /veh LOC730098 (11760151_x_at) / RFU OR4N2 (11742367_at) / Fold change /veh OR4N2 (11742367_at) / RFU PRRT2 (11749266_a_at) / Fold change /veh PRRT2 (11749266_a_at) / RFU SNX32 (11753110_a_at) / Fold change /veh SNX32 (11753110_a_at) / RFU CDHR5 (11726645_a_at) / Fold change /veh CDHR5 (11726645_a_at) / RFU RCAN1 (11760418_a_at) / Fold change /veh RCAN1 (11760418_a_at) / RFU FAM167A (11723789_a_at) / Fold change /veh FAM167A (11723789_a_at) / RFU FAM26E (11764081_at) / Fold change /veh FAM26E (11764081_at) / RFU ISYNA1 (11749810_s_at) / Fold change /veh ISYNA1 (11749810_s_at) / RFU ACY1 (11761880_at) / Fold change /veh ACY1 (11761880_at) / RFU 11764098_at / Fold change /veh 11764098_at / RFU SAMD14 (11745864_x_at) / Fold change /veh SAMD14 (11745864_x_at) / RFU NPB (11741838_a_at) / Fold change /veh NPB (11741838_a_at) / RFU TMPRSS6 (11731388_a_at) / Fold change /veh TMPRSS6 (11731388_a_at) / RFU KRTAP10-2 (11738614_at) / Fold change /veh KRTAP10-2 (11738614_at) / RFU ARHGAP8 /// PRR5-ARHGAP8 (11727945_x_at) / Fold change /veh ARHGAP8 /// PRR5-ARHGAP8 (11727945_x_at) / RFU KRTAP5-7 /// NADSYN1 (11734609_at) / Fold change /veh KRTAP5-7 /// NADSYN1 (11734609_at) / RFU RASL12 (11751679_a_at) / Fold change /veh RASL12 (11751679_a_at) / RFU CDKN2B (11736163_a_at) / Fold change /veh CDKN2B (11736163_a_at) / RFU PRF1 (11729649_at) / Fold change /veh PRF1 (11729649_at) / RFU, ZNF638 /// ZNF638-IT1 / Fold change vs veh, ZNF638 /// ZNF638-IT1 / RFU, PANK3 / Fold change vs veh, PANK3 / RFU, SH3YL1 / Fold change vs veh, SH3YL1 / RFU, ZEB2 / Fold change vs veh, ZEB2 / RFU, NRIP1 / Fold change vs veh, NRIP1 / RFU, PTTG1IP / Fold change vs veh, PTTG1IP / RFU, CAPN2 / Fold change vs veh, CAPN2 / RFU, MED14 / Fold change vs veh, MED14 / RFU, SNORA58 / Fold change vs veh, SNORA58 / RFU, C1orf63 / Fold change vs veh, C1orf63 / RFU, LRRFIP1 / Fold change vs veh, LRRFIP1 / RFU, NDUFAF7 / Fold change vs veh, NDUFAF7 / RFU, SLC12A2 / Fold change vs veh, SLC12A2 / RFU, IBTK / Fold change vs veh, IBTK / RFU, ESF1 / Fold change vs veh, ESF1 / Fold change vs veh, TMEM50B / RFU, TAOK1 / Fold change vs veh, TAOK1 / RFU, ACBD3 / Fold change vs veh, ACBD3 / RFU, TMA16 / Fold change vs veh, TMA16 / RFU, RWDD3 / Fold change vs veh, RWDD3 / RFU, BCAT1 / Fold change vs veh, BCAT1 / RFU, EDEM3 / Fold change vs veh, EDEM3 / RFU, TMEM33 / Fold change vs veh, TMEM33 / RFU, WDR75 / Fold change vs veh, WDR75 / RFU, AHCTF1 / Fold change vs veh, AHCTF1 / RFU, TFRC / Fold change vs veh, TFRC / RFU, ZDHHC17 / Fold change vs veh, ZDHHC17 / RFU, NOM1 / Fold change vs veh, NOM1 / RFU, ARL8B / Fold change vs veh, ARL8B / RFU, ZBTB11 / Fold change vs veh, ZBTB11 / RFU, TAMM41 / Fold change vs veh, TAMM41 / RFU, KIAA1704 /// LOC100996395 / Fold change vs veh, KIAA1704 /// LOC100996395 / RFU, ING1 / Fold change vs veh, ING1 / RFU, TRMT61B / Fold change vs veh, TRMT61B / RFU, FUBP3 / Fold change vs veh, FUBP3 / RFU, TP53 / Fold change vs veh, TP53 / RFU, TNKS2 / Fold change vs veh, TNKS2 / RFU, ZFP14 / Fold change vs veh, ZFP14 / RFU, ACTR2 / Fold change vs veh, ACTR2 / RFU, PPP3R1 / Fold change vs veh, PPP3R1 / RFU, PIK3R1 / Fold change vs veh, PIK3R1 / RFU, HNRNPA1 / Fold change vs veh, HNRNPA1 / RFU, RNF170 / Fold change vs veh, RNF170 / RFU, ZNF28 / Fold change vs veh, ZNF28 / RFU, RNGTT / Fold change vs veh, RNGTT / RFU, OGT / Fold change vs veh, OGT / RFU, BRD1 / Fold change vs veh, BRD1 / RFU, MARS / Fold change vs veh, MARS / RFU, ZNF655 / Fold change vs veh, ZNF655 / RFU, FAHD1 / Fold change vs veh, FAHD1 / RFU, BDP1 / Fold change vs veh, BDP1 / RFU, LRRCC1 / Fold change vs veh, LRRCC1 / RFU, ARID1A / Fold change vs veh, ARID1A / RFU, ZNF146 / Fold change vs veh, ZNF146 / RFU, ZNF330 / Fold change vs veh, ZNF330 / RFU, GPN3 / Fold change vs veh, GPN3 / RFU, C9orf123 / Fold change vs veh, C9orf123 / RFU, N4BP2L2 / Fold change vs veh, N4BP2L2 / RFU, ARFIP1 / Fold change vs veh, ARFIP1 / RFU, FAM179B / Fold change vs veh, FAM179B / RFU, BCL10 / Fold change vs veh, BCL10 / RFU, UHRF1BP1L / Fold change vs veh, UHRF1BP1L / RFU, BET1 / Fold change vs veh, BET1 / RFU, CNOT2 / Fold change vs veh, CNOT2 / RFU, ZNF268 / Fold change vs veh, ZNF268 / Fold change vs veh, ZNF507 / RFU, DGCR2 / Fold change vs veh, DGCR2 / RFU, WDSUB1 / Fold change vs veh, WDSUB1 / Fold change vs veh, HSP90B1 /// MIR3652 / RFU, ADSS / Fold change vs veh, ADSS / RFU, GK / Fold change vs veh, GK / RFU, ZNF148 / Fold change vs veh, ZNF148 / RFU, TAF9 / Fold change vs veh, TAF9 / RFU, SLC1A5 / Fold change vs veh, SLC1A5 / RFU, SLMO2 / Fold change vs veh, SLMO2 / RFU, ABCC4 / Fold change vs veh, ABCC4 / RFU, LOC101060439 /// RAP1B / Fold change vs veh, LOC101060439 /// RAP1B / RFU, RFX7 / Fold change vs veh, RFX7 / RFU, GTPBP10 / Fold change vs veh, GTPBP10 / RFU, CNEP1R1 / Fold change vs veh, CNEP1R1 / RFU, BIVM-ERCC5 /// ERCC5 / Fold change vs veh, BIVM-ERCC5 /// ERCC5 / RFU, ILF3 / Fold change vs veh, ILF3 / RFU 11762660_at / Fold change /veh 11762660_at / RFU VCAN (11757783_s_at) / Fold change /veh VCAN (11757783_s_at) / RFU DDX43 (11728927_at) / Fold change /veh DDX43 (11728927_at) / RFU KRT8 (11758188_x_at) / Fold change /veh KRT8 (11758188_x_at) / RFU NKD1 (11759106_at) / Fold change /veh NKD1 (11759106_at) / RFU SRD5A1 (11742802_a_at) / Fold change /veh SRD5A1 (11742802_a_at) / RFU TPSAB1 /// TPSB2 (11721975_s_at) / Fold change /veh TPSAB1 /// TPSB2 (11721975_s_at) / RFU GSTM3 (11746129_a_at) / Fold change /veh GSTM3 (11746129_a_at) / RFU IL23R (11737362_x_at) / Fold change /veh IL23R (11737362_x_at) / RFU TMEM51 (11727254_a_at) / Fold change /veh TMEM51 (11727254_a_at) / RFU PIWIL2 (11732686_x_at) / Fold change /veh PIWIL2 (11732686_x_at) / RFU ORM1 (11744905_x_at) / Fold change /veh ORM1 (11744905_x_at) / RFU CCDC152 (11743942_at) / Fold change /veh CCDC152 (11743942_at) / RFU ECM1 (11717891_a_at) / Fold change /veh ECM1 (11717891_a_at) / RFU IL23R (11748794_a_at) / Fold change /veh IL23R (11748794_a_at) / RFU TNFAIP8L3 (11732012_x_at) / Fold change /veh TNFAIP8L3 (11732012_x_at) / RFU MBOAT4 (11741988_at) / Fold change /veh MBOAT4 (11741988_at) / RFU 11764193_at / Fold change /veh 11764193_at / RFU TMEM53 (11763286_at) / Fold change /veh TMEM53 (11763286_at) / RFU MAGEB2 (11727129_at) / Fold change /veh MAGEB2 (11727129_at) / RFU TMEM200A (11744735_a_at) / Fold change /veh TMEM200A (11744735_a_at) / RFU CCDC152 (11751479_a_at) / Fold change /veh CCDC152 (11751479_a_at) / RFU FAM211A (11726209_a_at) / Fold change /veh FAM211A (11726209_a_at) / RFU RGS16 (11746705_a_at) / Fold change /veh RGS16 (11746705_a_at) / RFU VCAN (11755009_s_at) / Fold change /veh VCAN (11755009_s_at) / RFU RHOB (11743442_s_at) / Fold change /veh RHOB (11743442_s_at) / RFU RGS16 (11720943_a_at) / Fold change /veh RGS16 (11720943_a_at) / RFU RGS16 (11720944_at) / Fold change /veh RGS16 (11720944_at) / RFU, VPS4B / Fold change vs veh, VPS4B / RFU, CREB1 / Fold change vs veh, CREB1 / RFU, DNAJC13 / Fold change vs veh, DNAJC13 / RFU, GNAQ / Fold change vs veh, GNAQ / RFU, CDK5R1 / Fold change vs veh, CDK5R1 / RFU, ZRANB3 / Fold change vs veh, ZRANB3 / RFU, CUL4A / Fold change vs veh, CUL4A / RFU, CCNY / Fold change vs veh, CCNY / RFU, UFL1 / Fold change vs veh, UFL1 / RFU, COG3 / Fold change vs veh, COG3 / RFU, DIAPH2 / Fold change vs veh, DIAPH2 / RFU, SKA2 / Fold change vs veh, SKA2 / RFU, AFF3 / Fold change vs veh, AFF3 / RFU, LMF1 / Fold change vs veh, LMF1 / RFU, IPO11 / Fold change vs veh, IPO11 / RFU, DFFB / Fold change vs veh, DFFB / RFU, FOXP1 / Fold change vs veh, FOXP1 / RFU, CARD8 / Fold change vs veh, CARD8 / RFU, STRN3 / Fold change vs veh, STRN3 / RFU, ADK / Fold change vs veh, ADK / RFU, RASSF2 / Fold change vs veh, RASSF2 / RFU, WIPF1 / Fold change vs veh, WIPF1 / RFU, LARP1B / Fold change vs veh, LARP1B / RFU, RASA1 / Fold change vs veh, RASA1 / RFU, RB1 / Fold change vs veh, RB1 / RFU, PPFIA1 / Fold change vs veh, PPFIA1 / RFU, MAT2A / Fold change vs veh, MAT2A / RFU, CCT5 / Fold change vs veh, CCT5 / RFU, WDR92 / Fold change vs veh, WDR92 / RFU, CUX1 / Fold change vs veh, CUX1 / RFU, TTC7A / Fold change vs veh, TTC7A / RFU, TMEM135 / Fold change vs veh, TMEM135 / RFU, DEPTOR / Fold change vs veh, DEPTOR / RFU, CPM / Fold change vs veh, CPM / RFU, DNAJB6 / Fold change vs veh, DNAJB6 / RFU, CACNA2D3 / Fold change vs veh, CACNA2D3 / RFU, DTX4 / Fold change vs veh, DTX4 / RFU, TFCP2 / Fold change vs veh, TFCP2 / RFU, GMCL1 /// GMCL1P1 / Fold change vs veh, GMCL1 /// GMCL1P1 / RFU, AEBP2 / Fold change vs veh, AEBP2 / RFU, SNHG1 /// SNORD22 /// SNORD25 /// SNORD26 /// SNORD27 /// SNORD28 /// SNORD29 /// SNORD31 / Fold change vs veh, SNHG1 /// SNORD22 /// SNORD25 /// SNORD26 /// SNORD27 /// SNORD28 /// SNORD29 /// SNORD31 / Fold change (Aza/veh), C12orf56 (ProbeSet 11735607_a_at) / Fold change (ACY-1035/veh), C12orf56 (ProbeSet 11735607_a_at) / Fold change (Aza/veh), FGFR1OP (ProbeSet 11751329_s_at) / Fold change (ACY-1035/veh), FGFR1OP (ProbeSet 11751329_s_at) / Fold change (Aza/veh), VPS36 (ProbeSet 11739960_a_at) / Fold change (ACY-1035/veh), VPS36 (ProbeSet 11739960_a_at) / RFU SYPL1 (11715823_x_at) / Fold change /veh SYPL1 (11715823_x_at) / RFU IGFBP7 (11715501_s_at) / Fold change /veh IGFBP7 (11715501_s_at) / RFU REEP3 (11722064_at) / Fold change /veh REEP3 (11722064_at) / RFU IGLL1 (11728026_x_at) / Fold change /veh IGLL1 (11728026_x_at): dose or concentration left out as unconfirmed
Settings: ProbeSet 11739696_s_at; LIST D

In the case of `Nc1ncn([C@@H]2O[C@H](CO)[C@@H](O)[C@H]2O)c(=O)n1` [azacitidine], the “Fold change vs veh, AFF3” value is reported as 0.52.
